Source: patent publication US8952157B2, “Apoptosis-inducing agents for the treatment of cancer and immune and autoimmune diseases” (AbbVie Inc., priority 2008, dated 2015)

Biological target: GST-Bcl-2 (Homo sapiens (Human), UniProt P10415)
Assay: Time Resolved-Fluorescence Resonance Energy Transfer (TR-FRET) Bcl-2 binding assay
Details: GST-Bcl-2 1 nM, F-Bak peptide probe 100 nM, Tb-anti-GST antibody 1 nM; Ki by Wang's equation
How it was run: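 Competition TR-FRET: GST-Bcl-2 with fluorescent Bak peptide probe and Tb-anti-GST antibody, compounds serially diluted from 50 μM (2× start, 10% DMSO).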

Chain of GST-Bcl-2 (P10415 whole entry): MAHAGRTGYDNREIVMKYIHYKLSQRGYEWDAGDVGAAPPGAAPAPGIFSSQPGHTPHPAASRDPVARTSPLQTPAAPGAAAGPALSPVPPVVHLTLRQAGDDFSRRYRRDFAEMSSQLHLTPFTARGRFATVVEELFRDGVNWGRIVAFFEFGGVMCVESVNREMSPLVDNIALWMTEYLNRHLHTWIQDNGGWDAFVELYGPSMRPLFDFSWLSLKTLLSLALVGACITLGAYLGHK

| Compound | Ki [nM] |
| --- | --- |
| CC1(C)CCC(CN2CCN(c3ccc(C(=O)NS(=O)(=O)c4ccc(NCC5CCC(F)(F)CC5)c([N+](=O)[O-])c4)c(Oc4cc5cc[nH]c5cc4F)c3)CC2)=C(c2ccc(Cl)cc2)C1 [Example 411, 4-(4-{[2-(4-chlorophenyl)-4,4-dimethylcyclohex-1-en-1-yl]methyl}piperazin-1-yl)-N-[(4-{[(4,4-difluorocyclohexyl)methyl]amino}-3-nitrophenyl)sulfonyl]-2-[(6-fluoro-1H-indol-5-yl)oxy]benzamide] | 21.3 |
| CC1(C)CCC(CN2CCN(c3ccc(C(=O)NS(=O)(=O)c4cnc(OCC5(F)CCN(CC(F)F)CC5)c(Cl)c4)c(Oc4cnc(N)c(Cl)c4)c3)CC2)=C(c2ccc(Cl)cc2)C1 [Example 403, 2-[(6-amino-5-chloropyridin-3-yl)oxy]-N-[(5-chloro-6-{[1-(2,2-difluoroethyl)-4-fluoropiperidin-4-yl]methoxy}pyridin-3-yl)sulfonyl]-4-(4-{[2-(4-chlorophenyl)-4,4-dimethylcyclohex-1-en-1-yl]methyl}piperazin-1-yl)benzamide] | 2.14 |
| O=C(NS(=O)(=O)c1ccc(NCC2CCOCC2)c([N+](=O)[O-])c1)c1ccc(N2CCN(Cc3ccccc3-c3ccc(Cl)cc3)CC2)cc1Oc1cccc(-c2ccccc2)c1 [Example 86, 2-(1,1′-biphenyl-3-yloxy)-4-(4-((4′-chloro-1,1′-biphenyl-2-yl)methyl)piperazin-1-yl)-N-((3-nitro-4-((tetrahydro-2H-pyran-4-ylmethyl)amino)phenyl)sulfonyl)benzamide] | 5.26 |
| CC1(C)CCC(CN2CCN(c3ccc(C(=O)NS(=O)(=O)c4ccc(NCCN5CCOCC5)c([N+](=O)[O-])c4)c(Oc4cccc(F)c4F)c3)CC2)=C(c2ccc(Cl)cc2)C1 [Example 135, 4-(4-{[2-(4-chlorophenyl)-4,4-dimethylcyclohex-1-en-1-yl]methyl}piperazin-1-yl)-2-(2,3-difluorophenoxy)-N-({4-[(2-morpholin-4-ylethyl)amino]-3-nitrophenyl}sulfonyl)benzamide] | 0.068 |
| CC(C)N1CCC2(CCC(c3ccc(Cl)cc3)=C(CN3CCN(c4ccc(C(=O)NS(=O)(=O)c5ccc(NCC6CCOCC6)c([N+](=O)[O-])c5)c(Oc5cnc(N)c(Cl)c5)c4)CC3)C2)CC1 [Example 392, 2-[(6-amino-5-chloropyridin-3-yl)oxy]-4-(4-{[9-(4-chlorophenyl)-3-isopropyl-3-azaspiro[5.5]undec-8-en-8-yl]methyl}piperazin-1-yl)-N-({3-nitro-4-[(tetrahydro-2H-pyran-4-ylmethyl)amino]phenyl}sulfonyl)benzamide] | < 0.01 |
| CC(C)(C)OC(=O)Nc1ccc(Oc2cc(N3CCN(Cc4ccccc4-c4ccc(Cl)cc4)CC3)ccc2C(=O)NS(=O)(=O)c2ccc(NCC3CCOCC3)c([N+](=O)[O-])c2)cc1 [Example 83, tert-butyl 4-(5-(4-((4′-chloro-1,1′-biphenyl-2-yl)methyl)piperazin-1-yl)-2-((((3-nitro-4-((tetrahydro-2H-pyran-4-ylmethyl)amino)phenyl)sulfonyl)amino)carbonyl)phenoxy)phenylcarbamate] | > 1200 |
| CN1CCC(Nc2ccc(S(=O)(=O)NC(=O)c3ccc(N4CCN(CC5=C(c6ccc(Cl)cc6)CC(C)(C)CC5)CC4)cc3Oc3cccc(O)c3)cc2[N+](=O)[O-])CC1 [Example 176, 4-(4-{[2-(4-chlorophenyl)-4,4-dimethylcyclohex-1-en-1-yl]methyl}piperazin-1-yl)-2-(3-hydroxyphenoxy)-N-({4-[(1-methylpiperidin-4-yl)amino]-3-nitrophenyl}sulfonyl)benzamide] | 0.24 |
| CN1CCC(Nc2ccc(S(=O)(=O)NC(=O)c3ccc(N4CCN(CC5=C(c6ccc(Cl)cc6)CC(C)(C)CC5)CC4)cc3Oc3ccc(F)cc3Cl)cc2[N+](=O)[O-])CC1 [Example 61, 2-(2-chloro-4-fluorophenoxy)-4-(4-((2-(4-chlorophenyl)-4,4-dimethylcyclohex-1-en-1-yl)methyl)piperazin-1-yl)-N-((4-((1-methylpiperidin-4-yl)amino)-3-nitrophenyl)sulfonyl)benzamide] | 0.22 |
| Cc1c[nH]c2cccc(Oc3cc(N4CCN(CC5=C(c6ccc(Cl)cc6)CC(C)(C)CC5)CC4)ccc3C(=O)NS(=O)(=O)c3ccc(NCCCN4CCOCC4)c([N+](=O)[O-])c3)c12 [Example 63, 4-(4-((2-(4-chlorophenyl)-4,4-dimethylcyclohex-1-en-1-yl)methyl)piperazin-1-yl)-2-((3-methyl-1H-indol-4-yl)oxy)-N-((4-((3-morpholin-4-ylpropyl)amino)-3-nitrophenyl)sulfonyl)benzamide] | 0.438 |
| COCCNc1ccc(S(=O)(=O)NC(=O)c2ccc(N3CCN(CC4=C(c5ccc(Cl)cc5)CC(C)(C)CC4)CC3)cc2Oc2cc3cc[nH]c3cc2F)cc1[N+](=O)[O-] [Example 263, 4-(4-{[2-(4-chlorophenyl)-4,4-dimethylcyclohex-1-en-1-yl]methyl}piperazin-1-yl)-2-[(6-fluoro-1H-indol-5-yl)oxy]-N-({4-[(2-methoxyethyl)amino]-3-nitrophenyl}sulfonyl)benzamide] | 0.11 |
| CN(C)CCCNc1ccc(S(=O)(=O)NC(=O)c2ccc(N3CCN(CC4=C(c5ccc(Cl)cc5)CC(C)(C)CC4)CC3)cc2Oc2ccc(F)cc2)cc1[N+](=O)[O-] [Example 139, 4-(4-{[2-(4-chlorophenyl)-4,4-dimethylcyclohex-1-en-1-yl]methyl}piperazin-1-yl)-N-[(4-{[3-(dimethylamino)propyl]amino}-3-nitrophenyl)sulfonyl]-2-(4-fluorophenoxy)benzamide] | 0.125 |
| CN(C)CCCNc1ccc(S(=O)(=O)NC(=O)c2ccc(N3CCN(Cc4ccccc4-c4ccc(Cl)cc4)CC3)cc2Oc2ccc3[nH]cc(CCC(=O)N4CCOCC4)c3c2)cc1[N+](=O)[O-] [Example 70, 4-(4-((4′-chloro-1,1′-biphenyl-2-yl)methyl)piperazin-1-yl)-N-((4-((3-(dimethylamino)propyl)amino)-3-nitrophenyl)sulfonyl)-2-((3-(3-morpholin-4-yl-3-oxopropyl)-1H-indol-5-yl)oxy)benzamide] | 20.4 |
| CN(C)CCCNc1ccc(S(=O)(=O)NC(=O)c2ccc(N3CCN(Cc4ccccc4-c4ccc(Cl)cc4)CC3)cc2Oc2cccc3c2CCC(=O)N3)cc1[N+](=O)[O-] [Example 58, 4-(4-((4′-chloro-1,1′-biphenyl-2-yl)methyl)piperazin-1-yl)-N-((4-((3-(dimethylamino)propyl)amino)-3-nitrophenyl)sulfonyl)-2-((2-oxo-1,2,3,4-tetrahydroquinolin-5-yl)oxy)benzamide] | 0.155 |
| CC1(C)CCC(CN2CCN(c3ccc(C(=O)NS(=O)(=O)c4cnc(OCC5(F)CCOCC5)c(F)c4)c(Oc4cnc(N)c(Cl)c4)c3)CC2)=C(c2ccc(Cl)cc2)C1 [Example 402, 2-[(6-amino-5-chloropyridin-3-yl)oxy]-4-(4-{[2-(4-chlorophenyl)-4,4-dimethylcyclohex-1-en-1-yl]methyl}piperazin-1-yl)-N-({5-fluoro-6-[(4-fluorotetrahydro-2H-pyran-4-yl)methoxy]pyridin-3-yl}sulfonyl)benzamide] | 0.039 |
| O=C(NS(=O)(=O)c1ccc(NCC2CCOCC2)c([N+](=O)[O-])c1)c1ccc(N2CCN(Cc3ccccc3-c3ccc(Cl)cc3)CC2)cc1Oc1ccccc1-c1ccccc1 [Example 84, 2-(1,1′-biphenyl-2-yloxy)-4-(4-((4′-chloro-1,1′-biphenyl-2-yl)methyl)piperazin-1-yl)-N-((3-nitro-4-((tetrahydro-2H-pyran-4-ylmethyl)amino)phenyl)sulfonyl)benzamide] | 13.7 |
| N#Cc1cccc(Oc2cc(N3CCN(Cc4ccccc4-c4ccc(Cl)cc4)CC3)ccc2C(=O)NS(=O)(=O)c2ccc(NCC3CCOCC3)c([N+](=O)[O-])c2)c1 [Example 22, 4-(4-((4′-chloro-1,1′-biphenyl-2-yl)methyl)piperazin-1-yl)-2-(3-cyanophenoxy)-N-((3-nitro-4-((tetrahydro-2H-pyran-4-ylmethyl)amino)phenyl)sulfonyl)benzamide] | 5.46 |
| O=C(NS(=O)(=O)c1ccc(NCCCN2CCOCC2)c([N+](=O)[O-])c1)c1ccc(N2CCN(Cc3ccccc3-c3ccc(Cl)cc3)CC2)cc1Oc1ccc(-c2cccnc2)cc1 [Example 100, 4-(4-((4′-chloro-1,1′-biphenyl-2-yl)methyl)piperazin-1-yl)-N-((4-((3-morpholin-4-ylpropyl)amino)-3-nitrophenyl)sulfonyl)-2-(4-pyridin-3-ylphenoxy)benzamide] | 113 |
| CN1CCN(Nc2ccc(S(=O)(=O)NC(=O)c3ccc(N4CCN(CC5=C(c6ccc(Cl)cc6)CC(C)(C)CC5)CC4)cc3Oc3cc4cc[nH]c4c(F)c3F)cc2[N+](=O)[O-])CC1 [Example 220, 4-(4-{[2-(4-chlorophenyl)-4,4-dimethylcyclohex-1-en-1-yl]methyl}piperazin-1-yl)-2-[(6,7-difluoro-1H-indol-5-yl)oxy]-N-({4-[(4-methylpiperazin-1-yl)amino]-3-nitrophenyl}sulfonyl)benzamide] | 0.127 |
| CC1(C)CCC(CN2CCN(c3ccc(C(=O)NS(=O)(=O)c4ccc(NCC5CCOCC5)c([N+](=O)[O-])c4)c(Oc4cccc5[nH]cc(Cl)c45)c3)CC2)=C(c2ccc(Cl)cc2)C1 [Example 266, 2-[(3-chloro-1H-indol-4-yl)oxy]-4-(4-{[2-(4-chlorophenyl)-4,4-dimethylcyclohex-1-en-1-yl]methyl}piperazin-1-yl)-N-({3-nitro-4-[(tetrahydro-2H-pyran-4-ylmethyl)amino]phenyl}sulfonyl)benzamide] | 0.81 |
| CCN1CCC(Nc2ccc(S(=O)(=O)NC(=O)c3ccc(N4CCN(CC5=C(c6ccc(Cl)cc6)CC(C)(C)CC5)CC4)cc3Oc3cccc(Cl)c3)cc2[N+](=O)[O-])CC1 [Example 174, 2-(3-chlorophenoxy)-4-(4-{[2-(4-chlorophenyl)-4,4-dimethylcyclohex-1-en-1-yl]methyl}piperazin-1-yl)-N-({4-[(1-ethylpiperidin-4-yl)amino]-3-nitrophenyl}sulfonyl)benzamide] | 0.037 |
